Data reported in PubChem BioAssay AID252 (DTP/NCI, 2004).
Where “and” joins values, the source holds several entries; their conditions need not be identical. Equal entries are not always repeated. Inconclusive results and toxic doses are left out.

Tested on: BDF1 mice, intracerebral L1210 leukemia, survival T/C
Assay: NCI In Vivo Anticancer Drug Screen. Data for tumor model L1210 Leukemia (intracerebral) in B6D2F1 (BDF1) mice
Details: endpoint: mean survival time, higher = longer survival
Procedure, shortened: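 Transplantable tumour-bearing mice, compound-treated vs vehicle controls; read-out survival, reported as T/C ratio.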

[1] = dose: 12.0 mg/kg/injection, schedule: Q04DX003 (ip), vehicle: saline
[2] = dose: 40.0 mg/kg/injection, schedule: Q01DX001 (ip), vehicle: other

## O=NN(CCCl)C(=O)NCCCl
dose: 2.0 mg/kg/injection, schedule: Q01DX009 (ip), vehicle: saline
  T/C: 122 % of control
dose: 3.0 mg/kg/injection, schedule: Q04DX003 (ip), vehicle: saline
  T/C: 151 % of control
dose: 3.7 mg/kg/injection, schedule: Q01DX001 (ip), vehicle: other
  T/C: 114 % of control
dose: 4.0 mg/kg/injection, schedule: Q01DX009 (ip), vehicle: other
  T/C: 174 % of control
dose: 4.0 mg/kg/injection, schedule: Q01DX009 (ip), vehicle: saline
  T/C: 154 % of control
dose: 5.0 mg/kg/injection, schedule: Q01DX001 (ip), vehicle: other
  T/C: 117 % of control
dose: 5.0 mg/kg/injection, schedule: Q01DX001 (ip), vehicle: saline
  T/C: 121 % of control
dose: 6.0 mg/kg/injection, schedule: Q04DX003 (ip), vehicle: saline
  T/C: 173 % of control
dose: 7.0 mg/kg/injection, schedule: Q01DX001 (ip), vehicle: other
  T/C: 119 % of control
dose: 8.0 mg/kg/injection, schedule: Q01DX005 (ip), vehicle: saline
  T/C: 175 % of control
dose: 8.0 mg/kg/injection, schedule: Q01DX009 (ip), vehicle: other
  T/C: 225 % of control
dose: 8.0 mg/kg/injection, schedule: Q01DX009 (ip), vehicle: saline
  T/C: 197 % of control
dose: 8.4 mg/kg/injection, schedule: Q01DX001 (ip), vehicle: saline
  T/C: 117 % of control and 122 % of control
dose: 9.75 mg/kg/injection, schedule: Q01DX001 (ip), vehicle: saline
  T/C: 150 % of control and 153 % of control and 173 % of control
dose: 10.0 mg/kg/injection, schedule: Q01DX001 (oral), vehicle: saline
  T/C: 120 % of control
dose: 11.0 mg/kg/injection, schedule: Q04DX003 (ip), vehicle: saline + alcohol
  T/C: 203 % of control
[1]
  T/C: 250 % of control
dose: 13.0 mg/kg/injection, schedule: Q01DX001 (ip), vehicle: saline
  T/C: 219 % of control and 284 % of control
dose: 14.0 mg/kg/injection, schedule: Q01DX001 (sc), vehicle: saline
  T/C: 186 % of control
dose: 15.0 mg/kg/injection, schedule: Q01DX001 (ip), vehicle: other
  T/C: 153 % of control and 155 % of control
dose: 15.0 mg/kg/injection, schedule: Q01DX001 (ip), vehicle: saline
  T/C: 175 % of control
dose: 16.0 mg/kg/injection, schedule: Q01DX009 (ip), vehicle: other
  T/C: 123 % of control
dose: 16.0 mg/kg/injection, schedule: Q01DX009 (ip), vehicle: saline
  T/C: 103 % of control
dose: 19.5 mg/kg/injection, schedule: Q01DX001 (ip), vehicle: saline
  T/C: 197 % of control and 202 % of control and 226 % of control
dose: 19.7 mg/kg/injection, schedule: Q01DX001 (oral), vehicle: saline
  T/C: 217 % of control and 250 % of control (2×)
dose: 20.0 mg/kg/injection, schedule: Q01DX001 (ip), vehicle: other
  T/C: 174 % of control
dose: 20.0 mg/kg/injection, schedule: Q01DX001 (oral), vehicle: saline
  T/C: 159 % of control and 172 % of control
dose: 22.0 mg/kg/injection, schedule: Q04DX003 (ip), vehicle: saline + alcohol
  T/C: 276 % of control
dose: 23.0 mg/kg/injection, schedule: Q01DX001 (sc), vehicle: saline
  T/C: 228 % of control
dose: 24.0 mg/kg/injection, schedule: Q01DX001 (ip), vehicle: saline
  T/C: 236 % of control
dose: 25.0 mg/kg/injection, schedule: Q01DX001 (ip), vehicle: saline
  T/C: 263 % of control and 357 % of control
dose: 25.0 mg/kg/injection, schedule: Q01DX001 (oral), vehicle: saline
  T/C: 261 % of control
dose: 29.0 mg/kg/injection, schedule: Q01DX001 (ip), vehicle: saline
  T/C: 266 % of control and 297 % of control
dose: 30.0 mg/kg/injection, schedule: Q01DX001 (ip), vehicle: saline
  T/C: 225 % of control and 440 % of control
dose: 31.0 mg/kg/injection, schedule: Q01DX001 (ip), vehicle: other
  T/C: 246 % of control and 269 % of control
dose: 39.0 mg/kg/injection, schedule: Q01DX001 (sc), vehicle: saline
  T/C: 241 % of control
dose: 39.5 mg/kg/injection, schedule: Q01DX001 (oral), vehicle: saline
  T/C: 269 % of control and 387 % of control and 405 % of control
[2]
  T/C: 333 % of control
dose: 44.0 mg/kg/injection, schedule: Q04DX003 (ip), vehicle: saline + alcohol
  T/C: 87 % of control
dose: 48.0 mg/kg/injection, schedule: Q01DX001 (ip), vehicle: saline
  T/C: 296 % of control
dose: 50.0 mg/kg/injection, schedule: Q01DX001 (ip), vehicle: saline
  T/C: 150 % of control
dose: 50.0 mg/kg/injection, schedule: Q01DX001 (oral), vehicle: saline
  T/C: 238 % of control
dose: 60.0 mg/kg/injection, schedule: Q01DX001 (ip), vehicle: saline
  T/C: 112 % of control
dose: 62.0 mg/kg/injection, schedule: Q01DX001 (ip), vehicle: other
  T/C: 117 % of control
dose: 65.0 mg/kg/injection, schedule: Q01DX001 (sc), vehicle: saline
  T/C: 162 % of control
dose: 79.0 mg/kg/injection, schedule: Q01DX001 (oral), vehicle: saline
  T/C: 172 % of control and 175 % of control

## CCOC(N)=O
dose: 1074.0 mg/kg/injection, schedule: Q01DX001 (ip), vehicle: saline
  T/C: 104 % of control
dose: 1601.0 mg/kg/injection, schedule: Q01DX001 (ip), vehicle: saline
  T/C: 106 % of control

## O=NN(CCCl)C(=O)NC1CCSc2ccccc21 (stereo not drawn)
dose: 26.0 mg/kg/injection, schedule: Q01DX001 (ip), vehicle: other
  T/C: 164 % of control
dose: 27.0 mg/kg/injection, schedule: Q01DX001 (ip), vehicle: other
  T/C: 206 % of control
[2]
  T/C: 201 % of control and 261 % of control
dose: 60.0 mg/kg/injection, schedule: Q01DX001 (ip), vehicle: other
  T/C: 263 % of control and 288 % of control
dose: 90.0 mg/kg/injection, schedule: Q01DX001 (ip), vehicle: other
  T/C: 161 % of control and 222 % of control
dose: 135.0 mg/kg/injection, schedule: Q01DX001 (ip), vehicle: other
  T/C: 230 % of control

## CCC(=O)NC1=C(N2CC2C)C(=O)C(NC(=O)CC)=C(N2CC2C)C1=O (stereo not drawn)
dose: 1.56 mg/kg/injection, schedule: Q01DX009 (ip), vehicle: Klucel (hydroxypropylcellulose) (HPC)
  T/C: 96 % of control
dose: 3.12 mg/kg/injection, schedule: Q01DX009 (ip), vehicle: Klucel (hydroxypropylcellulose) (HPC)
  T/C: 94 % of control
dose: 12.5 mg/kg/injection, schedule: Q01DX009 (ip), vehicle: Klucel (hydroxypropylcellulose) (HPC)
  T/C: 122 % of control and 335 % of control
dose: 25.0 mg/kg/injection, schedule: Q01DX009 (ip), vehicle: Klucel (hydroxypropylcellulose) (HPC)
  T/C: 101 % of control and 107 % of control

## O=NN(CCCl)C(=O)NC1CCCCCCCCCCC1
dose: 298.0 mg/kg/injection, schedule: Q01DX001 (ip), vehicle: other
  T/C: 103 % of control
dose: 550.0 mg/kg/injection, schedule: Q01DX001 (ip), vehicle: other
  T/C: 124 % of control
dose: 596.0 mg/kg/injection, schedule: Q01DX001 (ip), vehicle: other
  T/C: 108 % of control
dose: 1250.0 mg/kg/injection, schedule: Q01DX001 (ip), vehicle: other
  T/C: 159 % of control and 160 % of control
dose: 1875.0 mg/kg/injection, schedule: Q01DX001 (ip), vehicle: other
  T/C: 123 % of control
dose: 2384.0 mg/kg/injection, schedule: Q01DX001 (ip), vehicle: other
  T/C: 110 % of control

## OC(CBr)C(O)C(O)C(O)CBr (stereo not drawn)
dose: 25.0 mg/kg/injection, schedule: Q01DX009 (ip), vehicle: steriod suspending solution
  T/C: 108 % of control
dose: 50.0 mg/kg/injection, schedule: Q01DX009 (ip), vehicle: steriod suspending solution
  T/C: 121 % of control
dose: 100.0 mg/kg/injection, schedule: Q01DX009 (ip), vehicle: steriod suspending solution
  T/C: 117 % of control

## CC(=O)NC1=C(N2CC2C)C(=O)C(NC(C)=O)=C(N2CC2C)C1=O (stereo not drawn)
dose: 2.5 mg/kg/injection, schedule: Q01DX009 (ip), vehicle: saline with Tween-80
  T/C: 118 % of control
dose: 2.5 mg/kg/injection, schedule: Q01DX009 (ip), vehicle: saline
  T/C: 111 % of control
dose: 5.0 mg/kg/injection, schedule: Q01DX009 (ip), vehicle: saline with Tween-80
  T/C: 120 % of control
dose: 5.0 mg/kg/injection, schedule: Q01DX009 (ip), vehicle: saline
  T/C: 114 % of control
dose: 10.0 mg/kg/injection, schedule: Q01DX009 (ip), vehicle: saline with Tween-80
  T/C: 94 % of control
dose: 10.0 mg/kg/injection, schedule: Q01DX009 (ip), vehicle: saline
  T/C: 97 % of control
dose: 20.0 mg/kg/injection, schedule: Q01DX009 (ip), vehicle: saline with Tween-80
  T/C: 88 % of control

## COc1cc([C@@H]2c3cc4c(cc3[C@@H](OC3OC5COC(C)OC5C(O)C3O)[C@H]3COC(=O)[C@H]23)OCO4)cc(OC)c1O (stereo partly drawn)
dose: 2.0 mg/kg/injection, schedule: Q01DX009 (oral), vehicle: Klucel (hydroxypropylcellulose) (HPC)
  T/C: 108 % of control
dose: 4.0 mg/kg/injection, schedule: Q01DX009 (oral), vehicle: Klucel (hydroxypropylcellulose) (HPC)
  T/C: 118 % of control
[1]
  T/C: 109 % of control
dose: 16.0 mg/kg/injection, schedule: Q01DX009 (oral), vehicle: Klucel (hydroxypropylcellulose) (HPC)
  T/C: 116 % of control
dose: 18.0 mg/kg/injection, schedule: Q04DX003 (ip), vehicle: saline
  T/C: 108 % of control
dose: 27.0 mg/kg/injection, schedule: Q04DX003 (ip), vehicle: saline
  T/C: 109 % of control
dose: 32.0 mg/kg/injection, schedule: Q01DX009 (oral), vehicle: Klucel (hydroxypropylcellulose) (HPC)
  T/C: 94 % of control
dose: 40.0 mg/kg/injection, schedule: Q04DX003 (ip), vehicle: saline
  T/C: 118 % of control
dose: 60.0 mg/kg/injection, schedule: Q04DX003 (ip), vehicle: saline
  T/C: 110 % of control
